Reference: the supplement of paper PMC6470124

Assays:
[1] = absolute recovery over mixed-bed multilayer solid-phase extraction; higher = better recovery; details: enrichment method: SPE
Procedure, shortened: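 Wastewater (100–250 mL, pH 6.5, glass-fibre filtered) and unfiltered nanopure water (1000 mL) were extracted on a three-layer mixed-bed cartridge, with standards spiked before extraction, after it, or not at all at 1000 ng/L and 200 ng/L respectively, apart from some classes. Internal standards were then added for liquid chromatography with high-resolution tandem mass spectrometry in both ionisation modes. Absolute recovery compares background-corrected response ratios of pre- and post-spiked samples across at least two replicates.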

[2] = absolute recovery over vacuum-assisted evaporative concentration; higher = better recovery; details: enrichment method: VEC
Procedure, shortened: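 Samples of influent (6 mL), effluent (15 mL) and surface or nanopure water (60 mL) were spiked with standards before or after concentration, or left unspiked, at 200 ng/L (nanopure/surface) or 1000 ng/L (wastewater), adjusted by class and compound. Concentration was by evaporation at 55 °C and 20 mbar to about 0.3 mL, followed by adjustment to 0.4 mL and centrifugation. Internal standards were then added for LC-HRMS/MS analysis. Absolute recovery was (response ratio pre − unspiked)/(post − unspiked) × 100, using averages of ≥ 2 replicates.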

[3] = LC retention time (Atlantis T3, 5-95% MeOH gradient, 0.1% formic acid); higher = more retained / less polar
Procedure, shortened: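 Retention times were recorded for reference standards on a polar reversed-phase C18 column. The standards were of purity ≥ 95%, and the Atlantis T3 column (3 × 150 mm, 3 μm) was run at 0.3 mL/min with a gradient from 5 to 95% methanol over 17.5 min, both water and methanol containing 0.1% formic acid. Detection used high-resolution tandem mass spectrometry on a QExactive Plus, with positive and negative electrospray in separate runs, and peaks were integrated in TraceFinder (5 ppm tolerance, at least three points per peak) before being checked by hand.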

Structure (SMILES) | absolute recovery ([1]; nanopure water) [%] | absolute recovery ([1]; surface water) [%] | absolute recovery ([1]; wastewater effluent) [%] | absolute recovery ([1]; wastewater influent) [%] | absolute recovery ([2]; wastewater effluent) [%] | absolute recovery ([2]; wastewater influent) [%] | LC retention time [3] [min]
O=C(NCc1ncc(C(F)(F)F)cc1Cl)c1c(Cl)cccc1Cl [Fluopicolide] | 95.7 | 104 | 97.2 | 93.4 | 115 | 109 | 19.6
Nc1nc(=O)n(C2CSC(CO)O2)cc1F (stereo not given) [Emtricitabine] | 75.9 | 87.2 | 84.2 | 85.2 | 103 | 101 | 9.72
O=C([O-])Cc1ccccc1Nc1c(Cl)cccc1Cl [Diclofenac] | 102 |  |  |  |  | 98.5 | 20.8
CC(C)Cc1ccc(C(C)C(=O)[O-])cc1 (stereo not given) [Ibuprofen] | 84.5 |  | 118 |  | 98.5 |  | 21
O=S(=O)([O-])c1ccc2ccc(S(=O)(=O)[O-])cc2c1 [2-7-Naphthalenedisulfonic-acid] | 93.9 | 77.6 | 77.2 | 88.8 | 108 | 112 | 8.38
CCCCOCCOCCOCc1cc2c(cc1CCC)OCO2 [Piperonyl-butoxide] | 75.2 | 66.7 | 88.9 |  | 125 | 88.2 | 22.7
CCCCC(=O)N(Cc1ccc(-c2ccccc2-c2nnn[n-]2)cc1)C(C(=O)[O-])C(C)C (stereo not given) [Valsartan] | 95.8 | 101 | 91 |  | 103 |  | 19.6
CC(C)N(C(=O)COc1nnc(C(F)(F)F)s1)c1ccc(F)cc1 [Flufenacet] | 100 | 95.9 | 97.5 | 83.5 | 114 | 95.3 | 20.1
O=c1[nH]sc2ccccc12 [Benzisothiazolin-3-on (=BIT)] | 79.3 | 76.3 | 72 | 142 | 86.7 | 22.6 | 14.2
CCCCOc1ccc(CC(=O)NO)cc1 [Bufexamac] | 88.6 | 83.9 | 83.3 | 84.7 | 93.4 | 71.9 | 17.9
COc1cc(OC)n2nc([N-]S(=O)(=O)c3c(C(F)(F)F)ccnc3OC)nc2n1 [Pyroxsulam] | 100 | 97.7 | 96.3 | 84.9 | 103 | 103 | 16.7
Cc1cc(Cl)ccc1OCCCC(=O)[O-] [MCPB] | 100 | 95.2 | 97.5 | 108 | 103 |  | 20.3
COc1cccc(C2(O)CCCCC2C[NH+](C)C)c1 (stereo not given) [Tramadol] | 94.2 | 85.7 | 92 | 91.6 | 82.8 | 144 | 12.2
O=C([O-])C(F)(F)C(F)(F)C(F)(F)F [PFBA] | 95.9 | 42.8 | 90.2 | 84.9 | 96.7 | 86.3 | 18.6
CSc1nc(=O)c(C(C)(C)C)n[n-]1 [Metribuzin-Desamino (=DA)] | 96.2 | 91.2 | 94.4 | 90.7 | 101 | 109 | 17.7
Cc1cc(N(C2OC(C(=O)[O-])C(O)C(O)C2O)S(=O)(=O)c2ccc(N)cc2)no1 (stereo not given) [Sulfamethoxazole-N1-Glucuronide] | 86.9 | 21.3 | 49.2 | 66.1 | 96.4 | 70.3 | 11.8
CC(=O)Nc1ccc(S(=O)(=O)[N-]c2cc(C)on2)cc1 [N4-Acetyl-Sulfamethoxazol] | 99.1 | 97.9 | 90.7 | 94 | 108 | 96 | 14.5
CC(C)c1ccc(NC(N)=O)cc1 [Isoproturon-didemethyl (=1-(4-Isoprophenyl)urea)] | 99.9 | 94.1 | 95.4 | 95.4 | 102 | 103 | 17.7
CCCC[NH+]1CCCCC1C(=O)Nc1c(C)cccc1C (stereo not given) [Bupivacaine] | 92 | 93.1 | 90.3 | 93.7 | 104 | 103 | 13.9
NC(=O)c1ncn(C2OC(CO)C(O)C2O)n1 (stereo not given) [Ribavirin] | 33.5 | 30.5 | 33.2 | 37 | 87 | 67.6 | 4.79
COC(=O)C(Cc1ccccc1)NC(=O)C([NH3+])CC(=O)[O-] (stereo not given) [Aspartam] | 50 | 41.1 | 53.3 | 58.7 | 48 | 36.3 | 12.6
CCC1OC(=O)C(C)C(OC2CC(C)(OC)C(O)C(C)O2)C(C)C(OC2OC(C)CC([NH+](C)C)C2O)C(C)(O)CC(C)C(=NOCOCCOC)C(C)C(O)C1(C)O (stereo not given) [Roxithromycin] | 80.1 | 95.7 | 87.5 | 98.8 | 90.2 | 90.4 | 17
C[NH+]=C([N-][N+](=O)[O-])NCc1cnc(Cl)s1 [Clothianidin] |  | 95.6 |  | 94.1 | 104 | 106 | 13.8
Cc1cn(C2CC(N=[N+]=[N-])C(CO)O2)c(=O)[nH]c1=O (stereo not given) [Zidovudine] | 98.2 | 93.4 | 93.9 | 97.1 | 103 | 104 | 13.1
Clc1ccccc1C(c1ccccc1)(c1ccccc1)n1ccnc1 [Clotrimazol] | 93.4 | 90.3 | 85.9 | 90.1 | 111 | 110 | 16.6
CC1(C(=O)Nc2ccc(O)c(Cl)c2Cl)CCCCC1 [Fenhexamid] | 102 |  |  | 97 | 92.1 | 96.3 | 20.1

Structure (SMILES) | absolute recovery ([1]; nanopure water) [%] | absolute recovery ([1]; surface water) [%] | absolute recovery ([1]; wastewater effluent) [%] | absolute recovery ([1]; wastewater influent) [%] | absolute recovery ([2]; wastewater effluent) [%] | absolute recovery ([2]; wastewater influent) [%] | LC retention time [3] [min]
COCC(=O)Nc1c(I)c(C(=O)NCC(O)CO)c(I)c(C(=O)N(C)CC(O)CO)c1I (stereo not given) [Iopromid] | 86.3 | 79.5 |  | 65.9 | 108 | 90.1 | 10.1
CSc1nnc(C(C)(C)C)c(=O)n1N [Metribuzin] | 91.1 | 94.1 | 89.8 | 95.2 | 101 | 99.6 | 17.3
OCC1OC(OC2(CCl)OC(CCl)C(O)C2O)C(O)C(O)C1Cl (stereo not given) [Sucralose] | 95 |  |  |  |  | 108 | 13.4
C[NH+](C)CCOC(c1ccccc1)c1ccccc1 [Diphenhydramine] | 88.9 | 97 | 91.1 | 77.8 | 104 | 103 | 14.6
O=C(Nc1ccc(Cl)cc1)Nc1ccc(Cl)c(Cl)c1 [Triclocarban] | 57.9 | 118 | 91.3 | 64.3 | 113 | 112 | 22
O=C([O-])C(c1ccccc1)C1CCCC[NH2+]1 (stereo not given) [Ritalinic-acid] | 104 | 77.4 | 88.9 | 79.8 | 110 | 104 | 12.3
Cc1ccc(-c2c(Cl)nc(C#N)n2S(=O)(=O)N(C)C)cc1 [Cyazofamid] | 66.4 | 64.6 | 58 | 63.2 | 99.5 | 104 | 20.3
CCCC1CC(C(=O)NC(C(C)Cl)C2OC(SC)C(O)C(O)C2O)[NH+](C)C1 (stereo not given) [Clindamycin] | 90.1 | 94.8 | 90 | 78.7 | 100 | 73.2 | 14.6
O=C1[N-]S(=O)(=O)c2ccccc21 [Saccharin] | 101 | 105 | 95.6 |  | 102 |  | 11.6
Cc1[nH]c(=O)n(C(C)(C)C)c(=O)c1Cl [Terbacil] | 96.1 | 96 | 97.3 | 97.2 | 102 | 105 | 17.6
COCC(C)N(C(=O)C(=O)[O-])c1c(C)csc1C (stereo not given) [Dimethenamid-OXA] | 96.4 | 99 |  | 86.6 | 105 | 108 | 19.8
COC(=O)NC(C(=O)NC(Cc1ccccc1)C(O)CN(Cc1ccc(-c2ccccn2)cc1)NC(=O)C(NC(=O)OC)C(C)(C)C)C(C)(C)C (stereo not given) [Atazanavir] | 87.6 | 100 | 95.5 | 95.1 | 116 | 61.4 | 20.3
COC(=O)C(C)N(C(=O)Cc1ccccc1)c1c(C)cccc1C (stereo not given) [Benalaxyl] | 95.9 | 93 | 96 | 105 | 97.6 | 94.9 | 21.1
CC1(C)CC1C(=O)NC(=CCCCCSCC([NH3+])C(=O)[O-])C(=O)[O-] (stereo not given) [Cilastatin] | 47.7 | 13.1 | 19.5 | 37 | 103 | 80.5 | 13.6
COC(=O)c1cc(C(=O)OC)cc(S(=O)(=O)[O-])c1 [Dimethyl-5-Sulfoisophthalate] | 96 | 92.9 | 96.6 | 15.6 | 108 | 90.7 | 16.1
O=C(Nc1ccccc1)N(Cc1ccc(Cl)cc1)C1CCCC1 [Pencycuron] | 84.2 | 110 |  | 80.4 | 117 | 124 | 21.4
CCC(C)c1cc([N+](=O)[O-])cc([N+](=O)[O-])c1[O-] (stereo not given) [Dinoseb] | 103 | 82.6 | 89.1 | 123 | 94.2 | 91.8 | 21.5
NC(=O)Cc1ccc(OCC(O)C[NH3+])cc1 (stereo not given) [Atenolol-desisopropyl] | 65.5 | 70.3 | 65.2 | 52.7 | 87.6 |  | 6.53
CC(C)c1c(C(=O)Nc2ccccc2)c(-c2ccccc2)c(-c2ccc(F)cc2)n1CCC(O)CC(O)CC(=O)[O-] (stereo not given) [Atorvastatin] | 31 | 42.7 | 45.5 | 46.5 | 49.3 | 57.8 | 19.8
CCCC(NC(C)C(=O)N1C(C(=O)[O-])CC2CCCCC21)C(=O)OCC (stereo not given) [Perindopril] | 97.7 | 88.8 | 91.5 | 138 | 95 | 96.1 | 15.5
Cn1sc(Cl)cc1=O [5-Chloro-2-methyl-4-isothiazolin-3-on (=CMI)] | 85.1 | 56.7 | 66.5 |  | 65.2 |  | 12.4
Cc1cccc(C)c1N(Cn1cccn1)C(=O)CCl [Metazachlor] | 96.5 | 97 | 93.4 | 94.5 | 104 | 96 | 18.3
OC(Cn1cncn1)(Cn1cncn1)c1ccc(F)cc1F [Fluconazol] | 100 | 92.8 | 96.9 | 96.1 | 105 | 105 | 14.2
COc1cc(OC)n2nc(S(=O)(=O)Nc3c(Cl)ccc(C)c3Cl)nc2n1 [Metosulam] | 98.1 | 96.2 | 99.7 | 92.6 | 98.6 | 106 | 17
COP(=O)(OC)SCn1c(=O)oc2cc(Cl)cnc21 [Azamethiphos] | 65.5 | 65.7 | 65.1 | 50.5 | 82.9 | 67 | 16.6
